PubChem BioAssay AID1963829 (Molecular Pharmacology Branch, DTP, NCI, 2024)

Test system: 935938-334-R-J1-PDC complex spheroid viability
Test: Anticancer human tumor 935938-334-R-J1-PDC patient-derived small intestine adenocarcinoma cell line growth inhibition [POLQ]
Conditions: for IC50: curve of first compound; for viability, T/C: stronger effect = lower value
In short: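 Patient-derived tumour cells were co-cultured with HUVEC and mesenchymal stem cells as multicellular spheroids at 37 °C. They were treated with POLQ inhibitors (novobiocin, ART-558, RP6685) alone or combined with other agents. Top concentrations were at or near clinical Cmax (otherwise 10 microM; SN-38 at 1 microM), decreasing in half-log steps.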

[1] = second compound 0.0316 µM, first compound 0.0316 µM
[2] = second compound 0.0316 µM, first compound 0.1 µM
[3] = second compound 0.0316 µM, first compound 0.316 µM
[4] = second compound 0.0316 µM, first compound 1 µM
[5] = second compound 0.0316 µM, first compound 3.16 µM
[6] = second compound 0.0316 µM, first compound 10 µM
[7] = second compound 0.1 µM, first compound 0.0316 µM
[8] = second compound 0.1 µM, first compound 0.1 µM
[9] = second compound 0.1 µM, first compound 0.316 µM
[10] = second compound 0.1 µM, first compound 1 µM
[11] = second compound 0.1 µM, first compound 3.16 µM
[12] = second compound 0.1 µM, first compound 10 µM
[13] = second compound 0.316 µM, first compound 0.0316 µM
[14] = second compound 0.316 µM, first compound 0.1 µM
[15] = second compound 0.316 µM, first compound 0.316 µM
[16] = second compound 0.316 µM, first compound 1 µM
[17] = second compound 0.316 µM, first compound 3.16 µM
[18] = second compound 0.316 µM, first compound 10 µM
[19] = second compound 1 µM, first compound 0.0316 µM
[20] = second compound 1 µM, first compound 0.1 µM
[21] = second compound 1 µM, first compound 0.316 µM
[22] = second compound 1 µM, first compound 1 µM
[23] = second compound 1 µM, first compound 3.16 µM
[24] = second compound 1 µM, first compound 10 µM
[25] = second compound 3.16 µM, first compound 0.0316 µM
[26] = second compound 3.16 µM, first compound 0.1 µM
[27] = second compound 3.16 µM, first compound 0.316 µM
[28] = second compound 3.16 µM, first compound 1 µM
[29] = second compound 3.16 µM, first compound 3.16 µM
[30] = second compound 3.16 µM, first compound 10 µM
[31] = second compound 10 µM, first compound 0.0316 µM
[32] = second compound 10 µM, first compound 0.1 µM
[33] = second compound 10 µM, first compound 0.316 µM
[34] = second compound 10 µM, first compound 1 µM
[35] = second compound 10 µM, first compound 3.16 µM
[36] = second compound 10 µM, first compound 10 µM
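Note: spheroids exposed to drugs for seven days before viability read.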
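Throughout, for viability, T/C: 100% = DMSO vehicle control wells.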

`CCc1cc2c(N3CCc4c(cc(Cn5ccnc5)cc4-c4cn(C)nc4C(F)(F)F)C3=O)ccnc2c(OC)n1` + Cc1cccc(N(C)C(=O)C2C(O)CCN2c2nc(C)cc(C(F)(F)F)c2C#N)c1 was tested. Which IC50 (second compound 0.0316 µM) did it give?
The IC50 was > 10 µM.

What about the IC50 (second compound 0.1 µM) of the same molecule?
Its IC50 is > 10 µM.

What about the IC50 (second compound 0.316 µM) of the same molecule?
The IC50 was > 10 µM.

What about the IC50 (second compound 1 µM) of the same molecule?
Its IC50 is > 10 µM.

What about the IC50 (second compound 3.16 µM) of the same molecule?
Its IC50 is > 10 µM.

And the IC50 (second compound 10 µM)?
The IC50 was > 10 µM.

What about the viability, T/C [1] of the same molecule?
The viability, T/C was 69.1%.

And the viability, T/C [2]?
The viability, T/C was 66.5%.

What about the viability, T/C [3] of the same molecule?
Its viability, T/C is 68.8%.

What about the viability, T/C [4] of the same molecule?
Its viability, T/C is 58.4%.

What about the viability, T/C [5] of the same molecule?
The viability, T/C was 69.4%.

And the viability, T/C [6]?
Its viability, T/C is 55.3%.

And the viability, T/C [7]?
The viability, T/C was 74.5%.

What about the viability, T/C [8] of the same molecule?
Its viability, T/C is 75%.

And the viability, T/C [9]?
Its viability, T/C is 63.2%.

And the viability, T/C [10]?
Its viability, T/C is 54.5%.

And the viability, T/C [11]?
Its viability, T/C is 60.6%.

What about the viability, T/C [12] of the same molecule?
Its viability, T/C is 55.8%.

And the viability, T/C [13]?
The viability, T/C was 61.5%.

And the viability, T/C [14]?
Its viability, T/C is 87.3%.

And the viability, T/C [15]?
The viability, T/C was 64.2%.

What about the viability, T/C [16] of the same molecule?
Its viability, T/C is 59.7%.

And the viability, T/C [17]?
The viability, T/C was 69.5%.

And the viability, T/C [18]?
The viability, T/C was 64.1%.

And the viability, T/C [19]?
Its viability, T/C is 98.3%.

And the viability, T/C [20]?
The viability, T/C was 54.9%.

What about the viability, T/C [21] of the same molecule?
Its viability, T/C is 58.3%.

And the viability, T/C [22]?
The viability, T/C was 67.8%.

And the viability, T/C [23]?
The viability, T/C was 65.8%.

What about the viability, T/C [24] of the same molecule?
The viability, T/C was 57.6%.

And the viability, T/C [25]?
Its viability, T/C is 78.3%.

And the viability, T/C [26]?
Its viability, T/C is 68.3%.

And the viability, T/C [27]?
Its viability, T/C is 67.9%.

And the viability, T/C [28]?
Its viability, T/C is 79%.

And the viability, T/C [29]?
Its viability, T/C is 71.8%.

And the viability, T/C [30]?
The viability, T/C was 57.8%.

What about the viability, T/C [31] of the same molecule?
The viability, T/C was 95.5%.

What about the viability, T/C [32] of the same molecule?
Its viability, T/C is 62.8%.

What about the viability, T/C [33] of the same molecule?
The viability, T/C was 81.6%.

What about the viability, T/C [34] of the same molecule?
The viability, T/C was 65.8%.

What about the viability, T/C [35] of the same molecule?
Its viability, T/C is 61.2%.

And the viability, T/C [36]?
Its viability, T/C is 51.9%.

How did the IC50 (second compound 0.0316 µM) turn out when `COc1cc2cc(C(=O)CCC(=O)O)sc2cc1OC` + Cc1cccc(N(C)C(=O)C2C(O)CCN2c2nc(C)cc(C(F)(F)F)c2C#N)c1 was run?
Its IC50 is > 10 µM.

And the IC50 (second compound 0.1 µM)?
Its IC50 is > 10 µM.

What about the IC50 (second compound 0.316 µM) of the same molecule?
The IC50 was > 10 µM.

And the IC50 (second compound 1 µM)?
Its IC50 is > 10 µM.

What about the IC50 (second compound 3.16 µM) of the same molecule?
Its IC50 is > 10 µM.

And the IC50 (second compound 10 µM)?
The IC50 was > 10 µM.

And the viability, T/C [1]?
The viability, T/C was 116%.

What about the viability, T/C [2] of the same molecule?
The viability, T/C was 84.3%.

What about the viability, T/C [3] of the same molecule?
Its viability, T/C is 88.5%.

What about the viability, T/C [4] of the same molecule?
Its viability, T/C is 83.9%.

What about the viability, T/C [5] of the same molecule?
The viability, T/C was 85.1%.

What about the viability, T/C [6] of the same molecule?
Its viability, T/C is 80.8%.

What about the viability, T/C [7] of the same molecule?
Its viability, T/C is 100%.

And the viability, T/C [8]?
The viability, T/C was 85.6%.

And the viability, T/C [9]?
Its viability, T/C is 92.4%.

What about the viability, T/C [10] of the same molecule?
The viability, T/C was 95.7%.

And the viability, T/C [11]?
The viability, T/C was 62.9%.

What about the viability, T/C [12] of the same molecule?
The viability, T/C was 81.9%.

What about the viability, T/C [13] of the same molecule?
The viability, T/C was 79.7%.

What about the viability, T/C [14] of the same molecule?
The viability, T/C was 82.5%.

What about the viability, T/C [15] of the same molecule?
The viability, T/C was 68.3%.

And the viability, T/C [16]?
The viability, T/C was 88.9%.

What about the viability, T/C [17] of the same molecule?
The viability, T/C was 84.8%.

And the viability, T/C [18]?
Its viability, T/C is 93.8%.

And the viability, T/C [19]?
Its viability, T/C is 91.7%.

And the viability, T/C [20]?
The viability, T/C was 96.5%.

And the viability, T/C [21]?
Its viability, T/C is 103%.

What about the viability, T/C [22] of the same molecule?
The viability, T/C was 81.1%.

What about the viability, T/C [23] of the same molecule?
The viability, T/C was 74%.

And the viability, T/C [24]?
The viability, T/C was 83.4%.

And the viability, T/C [25]?
The viability, T/C was 82.1%.

What about the viability, T/C [26] of the same molecule?
The viability, T/C was 95.6%.

And the viability, T/C [27]?
The viability, T/C was 98.5%.

And the viability, T/C [28]?
The viability, T/C was 95.9%.

And the viability, T/C [29]?
The viability, T/C was 98.2%.

What about the viability, T/C [30] of the same molecule?
Its viability, T/C is 95.1%.

And the viability, T/C [31]?
Its viability, T/C is 135%.

And the viability, T/C [32]?
The viability, T/C was 75.6%.

And the viability, T/C [33]?
Its viability, T/C is 96.2%.

And the viability, T/C [34]?
Its viability, T/C is 112%.

What about the viability, T/C [35] of the same molecule?
The viability, T/C was 114%.

And the viability, T/C [36]?
The viability, T/C was 105%.

What does the source list for `CC(=O)O[C@H]1C(=O)[C@@]2(C)[C@H]([C@H](OC(=O)c3ccccc3)[C@]3(O)C[C@H](OC(=O)[C@H](O)[C@@H](NC(=O)c4ccccc4)c4ccccc4)C(C)=C1C3(C)C)[C@]1(OC(C)=O)CO[C@@H]1C[C@@H]2O` + Nc1ccc(C#CCN(C(=O)Cc2ncc(C(F)(F)F)cc2C(F)(F)F)c2ccc(F)cc2)nn1?
IC50 (second compound 0.0316 µM): < 0.00949 µM; IC50 (second compound 0.1 µM): < 0.00949 µM; IC50 (second compound 0.316 µM): < 0.00949 µM; IC50 (second compound 1 µM): < 0.00949 µM; IC50 (second compound 3.16 µM): < 0.00949 µM; IC50 (second compound 10 µM): < 0.00949 µM; viability, T/C (second compound 0.0316 µM, first compound 0.00949 µM): 44.6%; viability, T/C (second compound 0.0316 µM, first compound 0.03 µM): 17.6%; viability, T/C (second compound 0.0316 µM, first compound 0.0949 µM): 13.5%; viability, T/C (second compound 0.0316 µM, first compound 0.3 µM): 18.1%; viability, T/C (second compound 0.0316 µM, first compound 0.949 µM): 16.1%; viability, T/C (second compound 0.0316 µM, first compound 3 µM): 16.3%; viability, T/C (second compound 0.1 µM, first compound 0.00949 µM): 34%; viability, T/C (second compound 0.1 µM, first compound 0.03 µM): 18%; viability, T/C (second compound 0.1 µM, first compound 0.0949 µM): 17.1%; viability, T/C (second compound 0.1 µM, first compound 0.3 µM): 17.1%; viability, T/C (second compound 0.1 µM, first compound 0.949 µM): 17.8%; viability, T/C (second compound 0.1 µM, first compound 3 µM): 21.7%; viability, T/C (second compound 0.316 µM, first compound 0.00949 µM): 43%; viability, T/C (second compound 0.316 µM, first compound 0.03 µM): 18.5%; viability, T/C (second compound 0.316 µM, first compound 0.0949 µM): 14.1%; viability, T/C (second compound 0.316 µM, first compound 0.3 µM): 11.7%; viability, T/C (second compound 0.316 µM, first compound 0.949 µM): 15.3%; viability, T/C (second compound 0.316 µM, first compound 3 µM): 15.9%; viability, T/C (second compound 1 µM, first compound 0.00949 µM): 30%; viability, T/C (second compound 1 µM, first compound 0.03 µM): 21.3%; viability, T/C (second compound 1 µM, first compound 0.0949 µM): 17.1%; viability, T/C (second compound 1 µM, first compound 0.3 µM): 15.5%; viability, T/C (second compound 1 µM, first compound 0.949 µM): 14.3%; viability, T/C (second compound 1 µM, first compound 3 µM): 16.9%; viability, T/C (second compound 3.16 µM, first compound 0.00949 µM): 40.9%; viability, T/C (second compound 3.16 µM, first compound 0.03 µM): 18.5%; viability, T/C (second compound 3.16 µM, first compound 0.0949 µM): 16.3%; viability, T/C (second compound 3.16 µM, first compound 0.3 µM): 13.8%; viability, T/C (second compound 3.16 µM, first compound 0.949 µM): 18.4%; viability, T/C (second compound 3.16 µM, first compound 3 µM): 19.4%; viability, T/C (second compound 10 µM, first compound 0.00949 µM): 47.3%; viability, T/C (second compound 10 µM, first compound 0.03 µM): 18.7%; viability, T/C (second compound 10 µM, first compound 0.0949 µM): 16.7%; viability, T/C (second compound 10 µM, first compound 0.3 µM): 15.5%; viability, T/C (second compound 10 µM, first compound 0.949 µM): 15.8%; viability, T/C (second compound 10 µM, first compound 3 µM): 17.5%
